# According to US6747061B2, “N-substituted dithiocarbamates for the treatment of biological disorders” (AtheroGenics, Inc., priority 2000, dated 2004):
# Structures can show the parent of a compound that is named as a salt. Where two headings read alike, the source gives them in different places.
# Columns and labels:
# [1] = tested on: VCAM-1; experiment: VCAM-1 assay: enzyme immunoassay of TNF-α induced VCAM-1 expression in endothelial cells; format: cell-based, Human
# Experimental: The VCAM-1 assay is an enzyme immunoassay to detect tumor necrosis factor alpha (TNF-α) induced Vascular Adhesion Molecule (VCAM-1) expression in endothelial cells.
# Human endothelial cells (HAEC) were purchased from Clonetics and maintained in EGM media (Clonetics) supplemented with 5% fetal bovine serum (FBS). In a typical experiment, cells were seeded in 96-well plates. The next day cells were stimulated with TNF-α (1 ng/ml) purchased from Boehringer Mannheim in the presence or absence of compounds dissolved in dimethylsulphoxide (DMSO). To establish a dose curve for each compound, four concentrations in 2 fold increments were used. Cells were exposed to TNF-α and compounds for approximately 16 hours. The next day, cells were examined under microscope to score for visual signs of toxicity.
# Media was discarded and the cells were washed once with Hanks buffered saline solution (HBSS)/phosphate buffered solution (PBS) 91:1). Primary mouse monoclonal antibody against VCAM-1 purchased from Southern Biotechnology Associates (0.25 μg/ml in HBSS/PBS+5% FBS) was added and incubated at 37° C. for 30 minutes. Cells were washed with HBSS/PBS three times, and secondary antibody horse radish peroxidase (HRP)-conjugated goat anti-mouse IgG purchased from Southern Biotechnology Associates (1:500 in HBSS/PBS+5% FBS) was added and incubated at 37° C. for 30 minutes. Cells were washed with HBSS/PBS four times and peroxidase substrate 3.3′,5,5′-tetramethyl-benzidine (TMB) was added and incubated in the dark at room temperature until there was adequate blue color development. The length of incubation time was typically 5-15 minutes. 2 N sulfuric acid was added to stop the color development and the data was collected by reading the absorbance at O.D. 450 nm. The result was expressed as the percentage of control sample (cells stimulated by TNF without any compound).
# [2] = tested on: SNU-C5 colorectal carcinoma cells; experiment: Anti-proliferative effect on SNU-C5 cells (CellTiter96); format: cell-based; conditions: 5-FU alone 1 μM, read-out: proliferation, percent of control
# Experimental: (§1) All primary cells and cell lines were commercially available. The transformed cell lines were grown in Dulbecco's Modified Eagle Media supplemented with 2 mM L-glutamine, 50 I.U. penicillin, 50 μg/ml streptomycin, nonessential amino acids and 10% heat-inactivated fetal bovine serum. HASM, HAEC and NHBE cells were cultured exactly as described by the commercial provider (Clonetics, San Diego, Calif.). All cell lines were grown at 37° C. in 5% CO2, with the media being changed every 48 hours.
# (§2) For the experimental assays, cells were plated in 96-well plates and grown until ˜35% confluency was achieved. For the transformed cell lines, cells were plated at low density and grown for 72 hours prior to being stimulated, whereas the non-transformed cells were plated at a higher density and grown for 24 hours prior to being stimulated.
# (§3) Cells were treated with dithiocarbamate (0.1-100 μM)±5FU (0.01-10 μM) and retreated after 48 hours when media was changed. Cell growth was assessed using the CellTiter96® assay system from Promega (Madison, Wis.). Each experimental condition was performed in triplicate or quadruplicate, with the number of experiments for each cell line being three.
# (§4) Statistical significance was assessed using an ANOVA with the appropriate post-hoc analysis as well as Students t-tests. *=p<0.05 when compared to control-treated (DMSO) cells. #=p<0.05 when compared to 5FU-treated cells.
# [3] = tested on: DLD-1 colorectal carcinoma cells; experiment: Anti-proliferative effect on DLD-1 cells (CellTiter96); format: cell-based; conditions: Homo sapiens, 5-FU alone 1 μM, read-out: proliferation, percent of control
# Experimental: as §1, §2, §3, §4
# [4] = tested on: HeLa; experiment: Proliferation of HeLa cells (FIG. 1, CellTiter96); format: cell-based; conditions: 10 μM dithiocarbamate + 0.1 μM 5-FU, or 0.1 μM 5-FU alone, 24-72 hours
# Experimental: as §1, §2
# (§5) Cells were treated with dithiocarbamate (0.1-100 μM)±5FU (0.01-10 μM) and retreated after 48 hours when media was changed. Cell growth was assessed using the CellTiter96® assay system from Promega (Madison, Wis.). […]
# as §4
# [5] = tested on: H1299; experiment: Proliferation of H1299 cells (FIG. 1, CellTiter96); format: cell-based; conditions: 10 μM dithiocarbamate + 0.1 μM 5-FU, or 0.1 μM 5-FU alone, 24-72 hours
# Experimental: as §1, §2, §5, §4
# [6] = tested on: MCF-7; experiment: Proliferation of MCF-7 cells (FIG. 1, CellTiter96); format: cell-based; conditions: 10 μM dithiocarbamate + 0.1 μM 5-FU, or 0.1 μM 5-FU alone, 24-72 hours
# Experimental: as §1, §2, §5, §4
# [7] = tested on: Saos-2; experiment: Proliferation of Saos-2 cells (FIG. 1, CellTiter96); format: cell-based; conditions: 10 μM dithiocarbamate + 0.1 μM 5-FU, or 0.1 μM 5-FU alone, 24-72 hours
# Experimental: as §1, §2, §5, §4
# [8] = tested on: T98G; experiment: Proliferation of T98G cells (FIG. 1, CellTiter96); format: cell-based; conditions: 10 μM dithiocarbamate + 0.1 μM 5-FU, or 0.1 μM 5-FU alone, 24-72 hours
# Experimental: as §1, §2, §5, §4
# [9] = tested on: HASM; experiment: Proliferation of non-transformed HASM cells (FIG. 1, CellTiter96); format: cell-based, Human; conditions: 10 μM dithiocarbamate + 0.1 μM 5-FU, or 0.1 μM 5-FU alone, 24-72 hours
# Experimental: as §1, §2, §5, §4
# [10] = tested on: HAEC; experiment: Proliferation of non-transformed HAEC cells (FIG. 1, CellTiter96); format: cell-based, Human; conditions: 10 μM dithiocarbamate + 0.1 μM 5-FU, or 0.1 μM 5-FU alone, 24-72 hours
# Experimental: as §1, §2, §5, §4
# [11] = tested on: NHBE; experiment: Proliferation of non-transformed NHBE cells (FIG. 1, CellTiter96); format: cell-based, Human; conditions: 10 μM dithiocarbamate + 0.1 μM 5-FU, or 0.1 μM 5-FU alone, 24-72 hours
# Experimental: as §1, §2, §5, §4
# [12] = Homo sapiens, Endothelial cell, HAEC, TNF-α 1 ng/ml, approximately 16 hours, read-out: VCAM-1 IC50
# [13] = HAEC, TNF-α 1 ng/ml, approximately 16 hours, read-out: VCAM-1 IC50
# [14] = Homo sapiens, Endothelial cell, 16 h, read-out: VCAM-1 IC50 (μM)
"IC50 [1, 12] [µM]",SMILES,other results
30,C=CCNC(=S)SCCCC(=O)OC [4-(Allylthiocarbamoylsulfanyl)butyric acid methyl ester],–
18,"CNC(=S)Sc1ccc(F)cc1F [Methyldithiocarbamic acid 2,4-difluorophenyl ester]",–
6,COCCCNC(=S)Sc1ccc(Cl)cc1 [(3-Methoxypropyl)dithiocarbamic acid 4-chlorophenyl ester],–
–,NC(CSC(=S)NCc1ccccc1)C(=O)O (stereo not shown) [(2-Amino-3-benzylthiocarbamoylsulfanyl)propionic acid],"IC50 [1, 13]: 7 µM"
2,"COc1cccc(CNC(=S)SCC(=O)C(C)(C)C)c1 [(3-Methoxybenzyl)dithiocarbamic acid 3,3-dimethyl-2-oxo-butyl ester]",–
3,"COC(=O)CCSC(=S)NCC1CCCO1 (stereo not shown) [III: Y′=(CH2)2C(O)OCH3, 3-(Tetrahydrofuran-2-ylmethylthiocarbamoylsulfanyl)-propionic acid methyl ester]",–
3,"N#CCCCSC(=S)NCC1CCCO1 (stereo not shown) [III: Y′=(CH2)3CN, (Tetrahydrofuran-2-ylmethyl)dithiocarbamic acid 3-cyano-propyl ester]",–
37,CCN(CC)CCNC(=S)SCCC(=O)OC [3-(2-Diethylamino-ethylthiocarbamoylsulfanyl)-propionic acid methyl ester],–
25,COC(=O)CCCSC(=S)NCc1ccccc1 [4-(Benzylthiocarbamoylsulfanyl)butyric acid methyl ester],–
1.5,"S=C(NCc1cccnc1)SCc1cc(Cl)sc1Cl [(Pyridin-3-ylmethyl)dithiocarbamic acid 2,5-dichloro-thiophen-3-ylmethyl ester]",–
–,"CC(C)CNC(=S)SCc1ccc(Cl)cc1Cl [Isobutyldithiocarbamic acid 2,4-dichlorobenzyl ester]","IC50 [1, 14]: 32 µM"
–,COC(=O)CCSC(=S)NCc1ccco1 [3-(Furan-2-ylmethylthiocarbamoyl-sulfanyl)propionic acid methyl ester],"IC50 [1, 14]: 6 µM"
50,CCOC(=O)NC(=S)SCCC(=O)OC [3-(Ethoxycarbonylthiocarbamoylsulfanyl)propionic acid methyl ester],–
7,"O=C(O)CCCSC(=S)NCC1CCCO1 (stereo not shown) [III: Y′=(CH2)3C(O)OH, 4-(Tetrahydrofuran-2-ylmethylthiocarbamoylsulfanyl)-butyric acid]",–
–,COC(=O)CCCSC(=S)NCCc1cc2ccccc2[nH]1 [4-[2-(1H-Indol-2-yl)ethylthiocarbamoyl-sulfanyl]butyric acid methyl ester],"IC50 [1, 14]: 5 µM"
11,"COCCNC(=S)SCCCC(=O)OC [II: X=CH3O, Y′=C(O)OCH3, N=2, m=3, 4-(2-Methoxy-ethylthiocarbamoylsulfanyl)butyric acid methyl ester]",–
11,"COC(=O)CCCCCSC(=S)NCC1CCCO1 (stereo not shown) [III: Y′=(CH2)5C(O)OCH2CH3, 6-(Tetrahydrofuran-2-ylmethylthiocarbamoyl-sulfanyl)hexanoic acid methyl ester]",–
–,"S=C(NCc1ccc(Cl)cc1Cl)SCc1ccc(Cl)cc1Cl [(2,4-dichlorobenzyl)dithiocarbamic acid 2,4-dichlorobenzyl ester]","IC50 [1, 14]: 8 µM"
14,"CNC(=S)SCCC(=O)OC [II: X=H, Y′=C(O)OCH3, N=1, m=2, 3-(Methylthiocarbamoylsulfanyl)propionic acid methyl ester]",–
40,COC(=O)CCCSC(=S)NCC1CCCCC1 [4-(Cyclohexylmethylthiocarbamoylsulfanyl)butyric acid methyl ester],–
–,"O=c1[nH]cc(F)c(=O)[nH]1 [5-FU, 5-fluorouracil]",activity at 1 µM ([2]; 24 HOURS): 109%; activity at 1 µM ([2]; 48 HOURS): 85.5%; activity at 1 µM ([2]; 72 HOURS): 86.1%; activity at 1 µM ([3]; 24 HOURS): 90.8%; activity at 1 µM ([3]; 48 HOURS): 85.8%; activity at 1 µM ([3]; 72 HOURS): 113%; inhibition of proliferation [4]: no significant inhibition of proliferation; inhibition of proliferation [5]: no significant inhibition of proliferation; inhibition of proliferation [6]: no significant inhibition of proliferation; inhibition of proliferation [7]: no significant inhibition of proliferation; inhibition of proliferation [8]: no significant inhibition of proliferation; inhibition of proliferation [9]: no significant inhibition of proliferation; inhibition of proliferation [10]: no significant inhibition of proliferation; inhibition of proliferation [11]: no significant inhibition of proliferation
3,COC(=O)CCCSC(=S)NC[C@H]1CCCO1 [4-((R)-Tetrahydrofuran-2-ylmethylthiocarbamoyl-sulfanyl)butyric acid methyl ester],–
18,COC(=O)CCCSC(=S)NCCC1CCCN1C (stereo not shown) [4-[2-(1-Methylpyrrolidin-2-yl)ethylthiocarbamoyl-sulfanyl]butyric acid methyl ester],–
12,C=CCNC(=S)SCCN [Allyldithiocarbamic acid 2-aminoethyl ester hydrochloride],–
3,COC(=O)CCCSC(=S)NC[C@@H]1CCCO1 [4-((S)-Tetrahydrofuran-2-ylmethylthiocarbamoyl-sulfanyl)butyric acid methyl ester],–
6.5,"CSC(=S)NCC1CCCO1 (stereo not shown) [III: Y′=CH3, (Tetrahydrofuran-2-ylmethyl)dithiocarbamic acid methyl ester]",–
30,CCCCCCCCCCCCSC(=S)NCCc1ccccc1 [Phenethyldithiocarbamic acid dodecyl ester],–
–,CCOC(=O)CCCNC(=S)SCC1CCCO1 (stereo not shown) [4-(Tetrahydrofuran-2-ylmethylsulfanyllthio-carbonylamino)butyric acid ethyl ester],"IC50 [1, 13]: 5 µM"
7,"CC(=O)CCCSC(=S)NCC1CCCO1 (stereo not shown) [III: Y′=(CH2)3C(O)CH3, (Tetrahydrofuran-2-ylmethyl)dithiocarbamic acid 4-oxo-pentyl ester]",–
10,"COC(=O)CSC(=S)NCC1CCCO1 (stereo not shown) [III: Y′=CH2C(O)OCH3, (Tetrahydrofuran-2-ylmethylthiocarbamoylsulfanyl)acetic acid methyl ester]",–
